Values of other authors in US20060280819A1, “Ellagic acid food supplement prepared from pomegranate seed” (priority 2005, published 2006).

How the values were obtained:
[1] = tested on: breast, pancreas, esophageal, skin, colon and prostate cancer cells
p53 gene = conditions: clinical tests
normal healthy cells = conditions: lab tests
cancer cells = conditions: lab tests

effect on normal healthy cells (normal healthy cells): no change
Structure (SMILES): O=c1oc2c(O)c(O)cc3c(=O)oc4c(O)c(O)cc1c4c23 [ellagic acid]
time to G-arrest (inhibiting and stopping mitosis-cancer cell division) [1]: ≤ 48 h
time to apoptosis (normal cell death) [1]: ≤ 72 h
effect on destruction of the p53 gene by cancer cells (p53 gene): prevents the destruction of the p53 gene
apoptosis (cell death) of cancer cells (cancer cells): causes apoptosis
